Literature values in patent US5162573A, “Valproic and (E)-2-valproenoic acid derivatives, and pharmaceutical compositions therefrom” (Chiesi Farmaceutici S.p.A., priority 1986, dated 1992).

How the values were obtained:
[1] = oral administration of equimolecular doses, in comparison with valproic acid
[2] = in comparison with valproic acid
[3] = not given; remark: listed apart in the source

Row | SMILES | hepatic concentration [1] | half life in man | anticonvulsivant activity, potency and duration of action [2] | toxic effects ([3]; in comparison with valproic acid) | hepatic tolerability / hepatic reactions ([3]; in vivo) | teratogenic effects ([3]; in vivo)
1 | CC/C=C(\CCC)C(=O)O [valproenoic acid, (E)-2-propyl-2-pentenoic acid] | remarkably reduced hepatic concentration in comparison with valproic acid | 12.5 h | a wide spectrum anticonvulsivant activity, a potency and a duration of action comparable to those of valproic acid | remarkably reduced toxic effects | much better tolerated at hepatic level | totally devoid of teratogenic effects
2 | CCCC(CCC)C(=O)O [valproic acid, 2-propyl-2-pentanoic acid] | – | 9 to 10 h | – | – | – | teratogenic effects
